Reference: patent US20250179078A1, “INHIBITORS OF NLRP3” (PTC THERAPEUTICS, INC., priority 2022, published 2025)

Molecular target: T1, NLRP3 (Homo sapiens, UniProt Q96P20)
T1 construct: host or cells: THP-1 cells differentiated with PMA
Assay: IL-1β Secretion Assay (NLRP3-dependent IL1β secretion in THP1 cells)
Type: cell-based
Settings: PMA-differentiated THP-1 cells; compounds incubated 20 h; 2.5 μM Nigericin 3 h; HTRF IL-1β readout; read-out: IC50 IL-1β Inhibition
Experimental: Monocytic THP-1 cells (ATCC: TIB-202) were maintained in growth media consisting of RPMI 1640 medium (ThermoFisher, Cat #11875-085), 10% FBS (ThermoFisher) and 0.05 mM β-mercaptoethanol (ThermoFisher, Cat #21985-023), according to the provider's instructions. The cell concentration was adjusted to 7.5×10^5 cells/mL, and plated in complete growth media with a final concentration of 100 ng/mL phorbol 12-myristate 13-acetate (PMA, Sigma #P8139). Cells were seeded at 100 µL/well into a 96-well cell culture plate (ThermoFisher Cat #165305) and allowed to differentiate for 24 h in a cell culture incubator at 37° C. with 5% CO2. Cells were washed 1× with 100 ul PBS and replaced with fresh RPMI+5% FBS. Compounds were serial diluted in DMSO with 3 fold dilution for a total of 7 concentrations. Diluted compounds were added to the cells at a ratio of 1:200 and incubated for 20 h. The NLRP3 inflammasome was activated with the addition of 2.5 μM Nigericin (Sigma: Cat #SML1779-1 ml), for 3 h. After incubation, 15 μL of conditioned media was removed and assayed for levels of IL-1β using the HTRF IL-1β assay kit (Cisbio: Cat #62HIL1BPEH) as per the manufacturer's instructions.
Compounds, once produced and prepared according to the present invention, can be assessed in variety of assays to characterize their activities. For example, NLRP3-dependent IL1β secretion was evaluated in THP1 cells. IC50 values of IL1β inhibition were calculated from the plot of percentage of inhibition versus the inhibitor concentration by a logistics fit. TABLE I depict examples of compounds according to generic Formula I. Data which is <1 nM is listed as *****; data 1-10 nM is listed as ****; data 10-100 nM is listed as ***, data 100-300 nM is listed as **, data ≥300 nM is listed as *.

T1 sequence (Q96P20 whole entry): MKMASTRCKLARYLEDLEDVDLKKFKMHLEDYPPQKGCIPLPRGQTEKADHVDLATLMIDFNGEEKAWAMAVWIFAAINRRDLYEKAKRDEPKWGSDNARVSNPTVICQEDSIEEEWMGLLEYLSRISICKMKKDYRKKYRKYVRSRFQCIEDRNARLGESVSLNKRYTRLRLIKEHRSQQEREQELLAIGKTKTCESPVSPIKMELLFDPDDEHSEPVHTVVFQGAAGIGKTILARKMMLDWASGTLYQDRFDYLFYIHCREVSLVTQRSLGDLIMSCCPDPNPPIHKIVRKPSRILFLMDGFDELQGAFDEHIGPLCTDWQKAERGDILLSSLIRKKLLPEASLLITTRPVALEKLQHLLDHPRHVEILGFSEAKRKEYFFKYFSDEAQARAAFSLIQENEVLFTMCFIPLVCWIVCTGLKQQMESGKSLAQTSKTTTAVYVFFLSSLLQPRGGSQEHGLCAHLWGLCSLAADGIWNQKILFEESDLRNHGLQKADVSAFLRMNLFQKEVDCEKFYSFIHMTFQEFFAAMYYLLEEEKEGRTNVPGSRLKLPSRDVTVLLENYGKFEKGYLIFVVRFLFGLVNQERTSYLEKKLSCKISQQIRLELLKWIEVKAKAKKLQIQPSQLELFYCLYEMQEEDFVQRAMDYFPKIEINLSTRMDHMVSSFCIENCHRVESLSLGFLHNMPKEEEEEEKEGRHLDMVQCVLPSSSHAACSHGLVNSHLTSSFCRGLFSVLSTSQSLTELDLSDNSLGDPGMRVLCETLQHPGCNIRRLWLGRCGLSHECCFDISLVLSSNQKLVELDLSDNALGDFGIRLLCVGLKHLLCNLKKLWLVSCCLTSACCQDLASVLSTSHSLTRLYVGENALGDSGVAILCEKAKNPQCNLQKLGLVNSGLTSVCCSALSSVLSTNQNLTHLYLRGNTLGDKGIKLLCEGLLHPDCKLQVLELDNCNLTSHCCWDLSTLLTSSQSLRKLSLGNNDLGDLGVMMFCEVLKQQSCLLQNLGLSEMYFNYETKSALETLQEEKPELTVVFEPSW

| SMILES | IC50 |
| --- | --- |
| CCN1CC[C@H](O)[C@@H](Nc2nnc(-c3ccc(C(F)(F)F)cc3OC(F)F)c3cccn23)C1 [Compound 46, (3S,4S)-3-({1-[2-(difluoromethoxy)-4-(trifluoromethyl)phenyl]pyrrolo[1,2-d][1,2,4]triazin-4-yl}amino)-1-ethylpiperidin-4-ol] | 10 to 100 nM |
| COc1ccc(-c2nnc(N[C@@H]3CCCN(C)C3)n3cccc23)c(Br)c1 [Compound 47, 1-(2-bromo-4-methoxyphenyl)-N-[(3R)-1-methylpiperidin-3-yl]pyrrolo[1,2-d][1,2,4]triazin-4-amine] | 10 to 100 nM |
| CCN1CC[C@@H](O)[C@@H](Nc2nnc(-c3ccc(C(F)(F)F)cc3OC(F)F)c3cccn23)C1 [Compound 48, (3S,4R)-3-({1-[2-(difluoromethoxy)-4-(trifluoromethyl)phenyl]pyrrolo[1,2-d][1,2,4]triazin-4-yl}amino)-1-ethylpiperidin-4-ol] | < 1 nM |
| Cc1cc(C(F)(F)F)cc(OC(F)F)c1-c1nnc(N[C@@H]2CCCN(C)C2)n2cccc12 [Compound 49, 1-[2-(difluoromethoxy)-6-methyl-4-(trifluoromethyl)phenyl]-N-[(3R)-1-methylpiperidin-3-yl]pyrrolo[1,2-d][1,2,4]triazin-4-amine] | 10 to 100 nM |
| CCN1CCC[C@@H](Nc2nnc(-c3ccc(OC)cc3OC(F)(F)F)c3c(F)ccn23)C1 [Compound 50, N-[(3R)-1-ethylpiperidin-3-yl]-8-fluoro-1-[4-methoxy-2-(trifluoromethoxy)phenyl]pyrrolo[1,2-d][1,2,4]triazin-4-amine] | < 1 nM |
| COc1ccc(-c2nnc(N[C@@H]3CCCN(CCO)C3)n3ccc(F)c23)c(OC(F)(F)F)c1 [Compound 51, 2-[(3R)-3-({8-fluoro-1-[4-methoxy-2-(trifluoromethoxy)phenyl]pyrrolo[1,2-d][1,2,4]triazin-4-yl}amino)piperidin-1-yl]ethan-1-ol] | 1 to 10 nM |
| COc1ccc(-c2nnc(N[C@@H]3C[C@@H](F)CN(C)C3)n3ccc(F)c23)c(OC(F)(F)F)c1 [Compound 52, 8-fluoro-N-[(3R,5R)-5-fluoro-1-methylpiperidin-3-yl]-1-[4-methoxy-2-(trifluoromethoxy)phenyl]pyrrolo[1,2-d][1,2,4]triazin-4-amine] | 1 to 10 nM |
| CCN1C[C@H](F)C[C@@H](Nc2nnc(-c3ccc(OC)cc3OC(F)(F)F)c3c(F)ccn23)C1 [Compound 53, N-[(3R,5R)-1-ethyl-5-fluoropiperidin-3-yl]-8-fluoro-1-[4-methoxy-2-(trifluoromethoxy)phenyl]pyrrolo[1,2-d][1,2,4]triazin-4-amine] | 1 to 10 nM |
| COc1ccc(-c2nnc(N[C@H]3C[C@@](C)(O)C3)n3ccc(F)c23)c(OC(F)(F)F)c1 [Compound 54, (1s,3s)-3-({8-fluoro-1-[4-methoxy-2-(trifluoromethoxy)phenyl]pyrrolo[1,2-d][1,2,4]triazin-4-yl}amino)-1-methylcyclobutan-1-ol] | 10 to 100 nM |
| COc1ccc(-c2nnc(N[C@@H]3CCCN(C)C3)n3ccc(F)c23)c(OC(F)F)c1 [Compound 55, 1-[2-(difluoromethoxy)-4-methoxyphenyl]-8-fluoro-N-[(3R)-1-methylpiperidin-3-yl]pyrrolo[1,2-d][1,2,4]triazin-4-amine] | 10 to 100 nM |
| CCN1CCC[C@@H](Nc2nnc(-c3ccc(OC)cc3OC(F)F)c3c(F)ccn23)C1 [Compound 56, 1-[2-(difluoromethoxy)-4-methoxyphenyl]-N-[(3R)-1-ethylpiperidin-3-yl]-8-fluoropyrrolo[1,2-d][1,2,4]triazin-4-amine] | < 1 nM |
| COc1ccc(-c2nnc(N[C@@H]3CCCN(CCO)C3)n3ccc(F)c23)c(OC(F)F)c1 [Compound 57, 2-[(3R)-3-({1-[2-(difluoromethoxy)-4-methoxyphenyl]-8-fluoropyrrolo[1,2-d][1,2,4]triazin-4-yl}amino)piperidin-1-yl]ethan-1-ol] | 10 to 100 nM |
| COc1ccc(-c2nnc(N[C@H]3C[C@@](C)(O)C3)n3ccc(F)c23)c(OC(F)F)c1 [Compound 58, (1s,3s)-3-({1-[2-(difluoromethoxy)-4-methoxyphenyl]-8-fluoropyrrolo[1,2-d][1,2,4]triazin-4-yl}amino)-1-methylcyclobutan-1-ol] | 10 to 100 nM |
| CCN1CCC[C@@H](Nc2nnc(-c3ccc(OC)cc3OC(F)(F)F)c3cccn23)C1 [Compound 59] | < 1 nM |
| COc1ccc(-c2nnc(N[C@@H]3C[C@@H](F)CN(C)C3)n3cccc23)c(OC(F)(F)F)c1 [Compound 60, N-[(3R,5R)-5-fluoro-1-methylpiperidin-3-yl]-1-[4-methoxy-2-(trifluoromethoxy)phenyl]pyrrolo[1,2-d][1,2,4]triazin-4-amine] | 1 to 10 nM |
| COc1ccc(-c2nnc(N[C@@H]3CCCN(CCO)C3)n3cccc23)c(OC(F)(F)F)c1 [Compound 61, 2-[(3R)-3-({1-[4-methoxy-2-(trifluoromethoxy)phenyl]pyrrolo[1,2-d][1,2,4]triazin-4-yl}amino)piperidin-1-yl]ethan-1-ol] | < 1 nM |
| COc1ccc(-c2nnc(N[C@@H]3CCC[C@H](O)C3)n3cccc23)c(OC(F)(F)F)c1 [Compound 62, (1S,3R)-3-({1-[4-methoxy-2-(trifluoromethoxy)phenyl]pyrrolo[1,2-d][1,2,4]triazin-4-yl}amino)cyclohexan-1-ol] | 10 to 100 nM |
| C[C@@H](O)CNc1nnc(-c2ccc(C(F)(F)F)cc2OC(F)F)c2cccn12 [Compound 63, (2R)-1-({1-[2-(difluoromethoxy)-4-(trifluoromethyl)phenyl]pyrrolo[1,2-d][1,2,4]triazin-4-yl}amino)propan-2-ol] | 1 to 10 nM |
| COc1ccc(-c2nnc(NCCO)n3cccc23)c(OC(F)(F)F)c1 [Compound 64, 2-({1-[4-methoxy-2-(trifluoromethoxy)phenyl]pyrrolo[1,2-d][1,2,4]triazin-4-yl}amino)ethan-1-ol] | 10 to 100 nM |
| COc1ccc(-c2nnc(NC[C@H](C)O)n3cccc23)c(OC(F)(F)F)c1 [Compound 65, (2S)-1-({1-[4-methoxy-2-(trifluoromethoxy)phenyl]pyrrolo[1,2-d][1,2,4]triazin-4-yl}amino)propan-2-ol] | 10 to 100 nM |
| COc1ccc(-c2nnc(NCC(C)(C)O)n3cccc23)c(OC(F)(F)F)c1 [Compound 66, 1-({1-[4-methoxy-2-(trifluoromethoxy)phenyl]pyrrolo[1,2-d][1,2,4]triazin-4-yl}amino)-2-methylpropan-2-ol] | 10 to 100 nM |
| COc1ccc(-c2nnc(NC3CCOCC3)n3cccc23)c(OC(F)(F)F)c1 [Compound 67, 1-[4-methoxy-2-(trifluoromethoxy)phenyl]-N-(oxan-4-yl)pyrrolo[1,2-d][1,2,4]triazin-4-amine] | 1 to 10 nM |
| COc1ccc(-c2nnc(N[C@@H]3CCOC3)n3cccc23)c(OC(F)(F)F)c1 [Compound 68, 1-[4-methoxy-2-(trifluoromethoxy)phenyl]-N-[(3R)-oxolan-3-yl]pyrrolo[1,2-d][1,2,4]triazin-4-amine] | 10 to 100 nM |
| COc1ccc(-c2nnc(NCc3nccn3C)n3cccc23)c(OC(F)(F)F)c1 [Compound 69, 1-[4-methoxy-2-(trifluoromethoxy)phenyl]-N-[(1-methyl-1H-imidazol-2-yl)methyl]pyrrolo[1,2-d][1,2,4]triazin-4-amine] | 10 to 100 nM |
| COc1ccc(-c2nnc(NC[C@@H](C)O)n3cccc23)c(OC(F)(F)F)c1 [Compound 70, (2R)-1-({1-[4-methoxy-2-(trifluoromethoxy)phenyl]pyrrolo[1,2-d][1,2,4]triazin-4-yl}amino)propan-2-ol] | 1 to 10 nM |
| COc1ccc(-c2nnc(N[C@H]3C[C@@](C)(O)C3)n3cccc23)c(C(F)(F)F)c1 [Compound 71, (1s,3s)-3-({1-[4-methoxy-2-(trifluoromethyl)phenyl]pyrrolo[1,2-d][1,2,4]triazin-4-yl}amino)-1-methylcyclobutan-1-ol] | 1 to 10 nM |
| COc1ccc(-c2nnc(N[C@H]3C[C@@](C)(O)C3)n3cccc23)c(Cl)c1 [Compound 72, (1s,3s)-3-{[1-(2-chloro-4-methoxyphenyl)pyrrolo[1,2-d][1,2,4]triazin-4-yl]amino}-1-methylcyclobutan-1-ol] | 10 to 100 nM |
| COc1ccc(-c2nnc(NC[C@H]3CCCO3)n3cccc23)c(OC(F)(F)F)c1 [Compound 73, 1-[4-methoxy-2-(trifluoromethoxy)phenyl]-N-{[(2R)-oxolan-2-yl]methyl}pyrrolo[1,2-d][1,2,4]triazin-4-amine] | 10 to 100 nM |
| COc1ccc(-c2nnc(NC[C@@H]3CCCN3C)n3cccc23)c(OC(F)(F)F)c1 [Compound 74, 1-[4-methoxy-2-(trifluoromethoxy)phenyl]-N-{[(2S)-1-methylpyrrolidin-2-yl]methyl}pyrrolo[1,2-d][1,2,4]triazin-4-amine] | 10 to 100 nM |
